According to article PMC6429263, “Evolution and Antibacterial Evaluation of 8-Hydroxy-cycloberberine Derivatives as a Novel Family of Antibacterial Agents Against MRSA” (Molecules, 2019):
≈ marks a conversion by molar mass, not a printed value. Like-named read-outs stand apart in the source and are kept apart here.

Columns and labels:
[1] = system: MRSA ATCC-B AA-1708; assay: MIC, agar dilution, MRSA ATCC-BAA-1708 (mupA positive); format: cell-based; settings: Staphylococcus aureus; MRSA ATCC-BAA-1708, mupA positive (mupirocin resistance); read-out: MIC
[2] = system: MSSA 15; assay: MIC, agar dilution, MSSA 15 (clinical isolate); format: cell-based, S. aureus; settings: Staphylococcus aureus
[3] = system: MSSE ATCC 12228; assay: MIC, agar dilution, MSSE ATCC 12228; format: cell-based, S. epidermidis; settings: Staphylococcus epidermidis, MSSE ATCC 12228, read-out: MIC
[4] = system: MRSE 13-3; assay: MIC, agar dilution, MRSE 13-3; format: cell-based, S. epidermidis; settings: Staphylococcus epidermidis; MRSE 13-3; read-out: MIC
[5] = system: S.h ATCC 35982; assay: MIC, agar dilution, S.h ATCC 35982; format: cell-based; settings: Staphylococcus hominis, ATCC35982
[6] = system: MRSA 13-18; assay: MIC, agar dilution, MRSA 13-18; format: cell-based; settings: Staphylococcus aureus; MRSA 13-18; read-out: MIC
[7] = system: S.s ATCC 15305; assay: MIC, agar dilution, S.s ATCC 15305; format: cell-based; settings: Staphylococcus saprophyticus, ATCC15305; S. saprophyticus ATCC 15305; read-out: MIC
[8] = system: MSSA 16-1; assay: MIC, agar dilution, MSSA 16-1 (clinical isolate); format: cell-based, S. aureus; settings: Staphylococcus aureus; MSSA 16-1, isolated from patients in China; read-out: MIC
[9] = system: MRSA ATCC 43300; assay: MIC, agar dilution, MRSA ATCC 43300; format: cell-based; settings: Staphylococcus aureus; MRSA ATCC 43300; read-out: MIC
[10] = system: MSSA ATCC 29213; assay: MIC, agar dilution, MSSA ATCC 29213; format: cell-based, S. aureus; settings: Staphylococcus aureus
[11] = system: MRSA 13-23; assay: MIC, agar dilution, MRSA 13-23; format: cell-based; settings: Staphylococcus aureus; MRSA 13-23; read-out: MIC
[12] = system: MRSE 16-5; assay: MIC, agar dilution, MRSE 16-5; format: cell-based, S. epidermidis; settings: Staphylococcus epidermidis; MRSE 16-5; read-out: MIC
[13] = system: MRSA ATCC -BAA-976; assay: MIC, agar dilution, MRSA ATCC-BAA-976 (clindamycin-resistant); format: cell-based; settings: Staphylococcus aureus
[14] = system: MSSE 16-5; assay: MIC, agar dilution, MSSE 16-5 (clinical isolate); format: cell-based, S. epidermidis; settings: Staphylococcus epidermidis
[15] = system: MRSA 16-34; assay: MIC, agar dilution, MRSA 16-34; format: cell-based; settings: Staphylococcus aureus; MRSA 16-34; read-out: MIC
[16] = system: VISA ATCC 700699; assay: MIC, agar dilution, VISA ATCC 700699; format: cell-based; settings: Staphylococcus aureus; VISA ATCC 700699; read-out: MIC
[17] = system: VISA ATCC 700698; assay: MIC, agar dilution, VISA ATCC 700698; format: cell-based; settings: Staphylococcus aureus; VISA ATCC 700698; read-out: MIC
[18] = MSSA 15, isolated from patients in China, read-out: MIC
[19] = S. hominis ATCC 35982, read-out: MIC
[20] = MRSA ATCC-BAA-976, clindamycin-resistant S. aureus, read-out: MIC
[21] = MSSE 16-5, isolated from patients in China, read-out: MIC

| Structure (SMILES) | MIC [1] | MIC [2, 18] | MIC ([3]; ATCC12228) | MIC [4] | MIC [5, 19] | MIC [6] | MIC [7] | MIC [8] | MIC [9] | MIC ([10]; MSSA ATCC 29213, read-out: MIC) | MIC [11] | MIC [12] | MIC [13, 20] | MIC [14, 21] | MIC [15] | MIC [16] | MIC [17] | further results |
| --- | --- | --- | --- | --- | --- | --- | --- | --- | --- | --- | --- | --- | --- | --- | --- | --- | --- | --- |
| COc1ccc2c(c[n+]3ccc4cc5c(c6c(Cc7cccc(C#N)c7)cc2c3c46)OCO5)c1O [13n, 1,2-Methylenedioxy-8-hydroxy-9-dimethoxy-13-m-cyanbenzylcycloberberine chloride] | > 64 mg/L | > 64 mg/L | 16 mg/L | 64 mg/L | 64 mg/L | > 64 mg/L | > 64 mg/L | > 64 mg/L | > 64 mg/L | > 64 mg/L | > 64 mg/L | 32 mg/L | > 64 mg/L | 32 mg/L | > 64 mg/L | > 64 mg/L | > 64 mg/L | – |
| COc1ccc2c(c[n+]3ccc4cc5c(c6c(Cc7cccc([N+](=O)[O-])c7)cc2c3c46)OCO5)c1O [13q, 1,2-Methylenedioxy-8-hydroxy-9-methoxy-13-m-nitrobenzylcycloberberine chloride] | > 64 mg/L | > 64 mg/L | 64 mg/L | 64 mg/L | 64 mg/L | > 64 mg/L | > 64 mg/L | 64 mg/L | > 64 mg/L | > 64 mg/L | > 64 mg/L | 32 mg/L | 64 mg/L | 32 mg/L | > 64 mg/L | 64 mg/L | > 64 mg/L | – |
| COc1ccc2c(c[n+]3ccc4cc5c(c6c(Cc7ccc([N+](=O)[O-])cc7)cc2c3c46)OCO5)c1O [13r, 1,2-Methylenedioxy-8-hydroxy-9-methoxy-13-p-nitrobenzylcycloberberine chloride] | 4 mg/L | 8 mg/L | 4 mg/L | > 64 mg/L | 8 mg/L | 32 mg/L | 32 mg/L | 16 mg/L | 64 mg/L | 16 mg/L | 8 mg/L | 16 mg/L | 32 mg/L | 4 mg/L | 8 mg/L | 4 mg/L | 4 mg/L | – |
| CCCc1cc2c3ccc(OC)c(O)c3c[n+]3ccc4cc5c(c1c4c23)OCO5 [15b, 1,2-Methylenedioxy-8-hydroxy-9-methoxy-13-propylcycloberberine chloride] | 2 mg/L | 2 mg/L | 2 mg/L | 4 mg/L | 2 mg/L | 4 mg/L | 8 mg/L | 2 mg/L | 4 mg/L | 2 mg/L | 4 mg/L | 2 mg/L | 2 mg/L | 1 mg/L | 2 mg/L | 2 mg/L | 4 mg/L | – |
| CCCCc1cc2c3ccc(OC)c(O)c3c[n+]3ccc4cc5c(c1c4c23)OCO5 [15c, 1,2-Methylenedioxy-8-hydroxy-9-methoxy-13-butylcycloberberine chloride] | 8 mg/L | 4 mg/L | 8 mg/L | 16 mg/L | 4 mg/L | 4 mg/L | 16 mg/L | 4 mg/L | 4 mg/L | 8 mg/L | 8 mg/L | 8 mg/L | 4 mg/L | 8 mg/L | 8 mg/L | 4 mg/L | 4 mg/L | – |
| C[C@H]1COc2c(N3CCN(C)CC3)c(F)cc3c(=O)c(C(=O)O)cn1c23 [Lev, levofloxacin, reference compound] | 16 mg/L (≈ 44.3 µM) | – | – | 32 mg/L (≈ 88.6 µM) | – | 32 mg/L (≈ 88.6 µM) | 1 mg/L (≈ 2.77 µM) | 0.25 mg/L (≈ 0.692 µM) | 32 mg/L (≈ 88.6 µM) | – | 64 mg/L (≈ 177 µM) | 8 mg/L (≈ 22.1 µM) | – | – | 64 mg/L (≈ 177 µM) | 8 mg/L (≈ 22.1 µM) | 32 mg/L (≈ 88.6 µM) | MIC ([2]; MSSA): 0.125 mg/L (≈ 0.346 µM); MIC ([3]; ATCC12228, 18 h): 0.126 mg/L (≈ 0.349 µM); MIC [5]: 0.125 mg/L (≈ 0.346 µM); MIC [10]: 0.125 mg/L (≈ 0.346 µM); MIC [13]: 0.125 mg/L (≈ 0.346 µM); MIC [14]: 0.125 mg/L (≈ 0.346 µM) |
